From patent US20240317816A1, “PEPTIDES FOR IMMUNOTHERAPY” (Genevive, Inc., priority 2021, published 2024)

Test system: Unstimulated human T cells
Test: Transwell T cell migration towards CXCR3 ligands
Format: cell-based
Procedure: T cell migration towards CXCR3 ligands in the presence of SG-3-00802 and SG-3-06683 was tested using a Transwell migration assay. Suboptimal concentrations of each ligand (CXCR3 ligands CXCL9, CXCL10, and CXCL11) were added to the bottom of the transwell with increasing doses of SG-3-00802 or SG-3-006683. An optimal concentration of ligand was used as positive control, as indicated in the graphs.
Unstimulated human T cells were resuspended in AIM V serum-free media, then were added to the top chamber of a […] polycarbonate Transwell insert and incubated with the indicated concentrations of the ligands and peptides in the bottom chamber for 2.5 hours at 37° C. T cells that migrated to the bottom chamber were collected, stained with anti-CD3 antibody, and counted using Beckman Coulter Cytoflex flow cytometer. 123count eBeads counting beads were added to each of the wells for obtaining the absolute cell counts.

Measured: T cell migration to suboptimal level of ligand

MKVRPSVKPMCEKCKIIRRKGRVMVICENPKHKQRQG [SG-3-00802]
increased migration: CXCL9, 2.5 hours | CXCL10, 2.5 hours | CXCL11, 2.5 hours
